According to patent US8044198B2, “Sirtuin modulating compounds” (Sirtris Pharmaceuticals, Inc., priority 2005, dated 2011):

Target: T1, SIRT1 (Homo sapiens, UniProt Q96EB6)
T1 sequence (Q96EB6 1-747): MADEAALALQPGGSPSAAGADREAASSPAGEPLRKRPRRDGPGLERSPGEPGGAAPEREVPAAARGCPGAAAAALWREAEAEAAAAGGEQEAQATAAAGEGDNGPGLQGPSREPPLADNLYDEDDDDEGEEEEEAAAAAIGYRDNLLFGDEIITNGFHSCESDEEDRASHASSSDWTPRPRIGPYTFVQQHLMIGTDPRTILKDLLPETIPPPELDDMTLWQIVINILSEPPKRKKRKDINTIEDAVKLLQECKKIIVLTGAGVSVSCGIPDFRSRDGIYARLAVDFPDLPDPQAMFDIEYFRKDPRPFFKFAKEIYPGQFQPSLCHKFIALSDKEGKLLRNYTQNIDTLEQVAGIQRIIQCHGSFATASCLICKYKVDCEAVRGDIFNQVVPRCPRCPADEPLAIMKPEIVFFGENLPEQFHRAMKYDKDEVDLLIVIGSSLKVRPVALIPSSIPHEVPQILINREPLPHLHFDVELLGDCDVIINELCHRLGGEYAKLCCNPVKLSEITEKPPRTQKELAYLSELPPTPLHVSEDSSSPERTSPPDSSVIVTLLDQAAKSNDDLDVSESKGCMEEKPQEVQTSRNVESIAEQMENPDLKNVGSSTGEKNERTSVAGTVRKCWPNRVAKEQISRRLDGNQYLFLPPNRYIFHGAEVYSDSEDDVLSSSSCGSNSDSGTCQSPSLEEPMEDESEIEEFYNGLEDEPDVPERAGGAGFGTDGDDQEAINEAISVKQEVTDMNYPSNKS
Test: SIRT1 mass spectrometry (MS) based deacetylation assay; for FOLD ACT. MS: test concentration or dose not given here
Assay type: biochemical
Conditions: Sirt1 activators; for FOLD ACT. MS: fold activation as determined by MS; for EC50: mass spectrometry assay, read-out: ED50 MS ASSAY

Row | SMILES | FOLD ACT. MS | EC50 [µM]
1 | COc1cc(C(=O)Nc2ccccc2-c2cn3ccccc3n2)ccc1CN1CCOCC1 [Compound 541] | B (B (Fold Activation <250%)) | 5 to 50
2 | COc1cc(C(=O)Nc2ccccc2-c2cn3cccnc3n2)ccc1CN1CCOCC1 [Compound 542] | A (A (Fold activation >250%)) | 5 to 50
3 | O=C(Nc1ccccc1-c1cn2c(CN3CCNCC3)csc2n1)c1cnccn1 [Compound 543] | A (A (Fold activation >250%)) | < 5
4 | O=C(Nc1ccccc1-c1cn2c(CN3CCNCC3)csc2n1)c1cc2ccccc2s1 [Compound 544] | A (A (Fold activation >250%)) | 5 to 50
5 | COc1ccc(C(=O)Nc2ccccc2-c2cn3c(n2)CCCC3)cc1OC [Compound 545] | B (B (Fold Activation <250%)) | 5 to 50
6 | COc1cc(C(=O)Nc2ccccc2-c2cn3c(n2)CCCC3)cc(OC)c1OC [Compound 546] | B (B (Fold Activation <250%)) | 5 to 50
7 | O=C(Nc1ccccc1-c1cn2c(n1)CCCC2)c1ccc2ccccc2n1 [Compound 547] | B (B (Fold Activation <250%)) | < 5
8 | O=C(Nc1ccccc1-c1cn2c(n1)CCCC2)c1cnc2ccccc2n1 [Compound 548] | B (B (Fold Activation <250%)) | < 5
9 | O=C(Nc1ccccc1-c1nc2ccccc2[nH]1)c1ccc2ccccc2n1 [Compound 556] | A (A (Fold activation >250%)) | < 5
10 | COc1cc(C(=O)Nc2ccccc2-c2nc3ccccc3[nH]2)ccc1CN1CCNCC1 [Compound 558] | A (A (Fold activation >250%)) | < 5
11 | COc1ccc(C(=O)Nc2ccc(-c3nc4ccncc4o3)s2)c(OC)c1 [Compound 561] | B (B (Fold Activation <250%)) | < 5
12 | COc1cc(OC)cc(C(=O)Nc2ccc(-c3nc4ccncc4o3)s2)c1 [Compound 562] | B (B (Fold Activation <250%)) | < 5
13 | COc1cc(C(=O)Nc2ccc(-c3nc4ccncc4o3)s2)cc(OC)c1OC [Compound 563] | B (B (Fold Activation <250%)) | 5 to 50
14 | CS(=O)(=O)Nc1cccc(C(=O)Nc2cc(-c3nc4ncccc4o3)ccn2)c1 [Compound 566] | B (B (Fold Activation <250%)) | 5 to 50
15 | COc1cc(C(=O)Nc2cc(-c3nc4ncccc4o3)ccn2)ccc1CN1CCCCC1 [Compound 571] | B (B (Fold Activation <250%)) | 5 to 50
16 | COc1cc(C(=O)Nc2cc(-c3nc4ncccc4o3)ccn2)ccc1CN1CCCC1 [Compound 572] | B (B (Fold Activation <250%)) | 51 to 100
17 | CCn1ccc(C(=O)Nc2ccccc2-c2nc3ncccc3o2)n1 [Compound 581] | B (B (Fold Activation <250%)) | 5 to 50
18 | COc1cc(C(=O)Nc2ccccc2-c2nc3ncccc3o2)ccc1CN1CCCCC1 [Compound 585] | B (B (Fold Activation <250%)) | 5 to 50
19 | COc1cc(C(=O)Nc2ccccc2-c2nc3ccccc3[nH]2)ccc1CN1CCCC1 [Compound 587] | B (B (Fold Activation <250%)) | < 5
20 | COc1cc(C(=O)Nc2ccccc2-c2nc3cc(CN4CCNCC4)cnc3s2)cc(OC)c1OC [Compound 588] | A (A (Fold activation >250%)) | 5 to 50
21 | COc1cc(OC)cc(C(=O)Nc2ccccc2-c2nc3cc(CN4CCNCC4)cnc3s2)c1 [Compound 589] | A (A (Fold activation >250%)) | < 5
22 | O=C(Nc1ccccc1-c1nc2cc(CN3CCNCC3)cnc2s1)c1ccc2c(c1)OCO2 [Compound 590] | B (B (Fold Activation <250%)) | 5 to 50

Row | SMILES | FOLD ACT. MS | EC50 [µM]
23 | Cc1ccc(C(=O)Nc2ccccc2-c2nc3cc(CN4CCNCC4)cnc3s2)cc1C [Compound 591] | A (A (Fold activation >250%)) | < 5
24 | N#Cc1cccc(C(=O)Nc2ccccc2-c2nc3cc(CN4CCNCC4)cnc3s2)c1 [Compound 592] | B (B (Fold Activation <250%)) | < 5
25 | CN(C)c1cccc(C(=O)Nc2ccccc2-c2nc3cc(CN4CCNCC4)cnc3s2)c1 [Compound 593] | A (A (Fold activation >250%)) | < 5
26 | O=C(Nc1ccccc1-c1nc2cc(CN3CCNCC3)cnc2s1)c1ccc(F)c(F)c1 [Compound 594] | B (B (Fold Activation <250%)) | 5 to 50
27 | O=C(Nc1ccccc1-c1nc2ccncc2s1)c1cc(C(F)(F)F)ccc1C(F)(F)F [Compound 596] | – | < 5
28 | COc1ccc(OC(=O)Nc2ccccc2-c2nc3ccncc3s2)cc1 [Compound 597] | – | < 5
29 | COc1ccc(NC(=S)Nc2cccc(-c3nc4ccncc4s3)c2)c(OC)c1 [Compound 599] | – | < 5
30 | COc1ccc(NC(=S)Nc2cccc(-c3nc4ccncc4s3)c2)cc1OC [Compound 600] | – | > 150
31 | O=C(Nc1ccccc1-c1cn2c(CN3CCOCC3)csc2n1)c1cnc2ccccc2n1 [Compound 617] | A (A (Fold activation >250%)) | < 5
32 | O=C(Nc1ccccc1-c1cn2c(CN3CCCCC3)csc2n1)c1cnc2ccccc2n1 [Compound 618] | B (B (Fold Activation <250%)) | < 5
33 | O=C(Nc1ccccc1-c1cn2c(CN3CCCC3)csc2n1)c1cnc2ccccc2n1 [Compound 619] | B (B (Fold Activation <250%)) | < 5
34 | COc1cc(C(=O)Nc2ccccc2-c2cn3c(CN4CCCC4)csc3n2)cc(OC)c1OC [Compound 620] | B (B (Fold Activation <250%)) | < 5
35 | O=C(Nc1ncccc1-c1cn2c(CN3CCOCC3)csc2n1)c1cnc2ccccc2n1 [Compound 621] | A (A (Fold activation >250%)) | < 5
36 | O=C(Nc1ccccc1-c1nc2cc(CN3CCNCC3)cnc2s1)c1cnc2ccccc2n1 [Compound 622] | A (A (Fold activation >250%)) | < 5
37 | O=C(Nc1ccccc1-c1cn2c(CN3CCNCC3)csc2n1)c1cc2ccccc2o1 [Compound 624] | A (A (Fold activation >250%)) | < 5
38 | O=C(Nc1ccccc1-c1cn2c(CN3CCNCC3)csc2n1)c1cc(-c2ccccc2)ncn1 [Compound 625] | A (A (Fold activation >250%)) | < 5
39 | O=C(Nc1ccccc1-c1cn2c(CN3CCN(Cc4ccccc4)CC3=O)csc2n1)c1cnc2ccccc2n1 [Compound 628] | B (B (Fold Activation <250%)) | < 5
40 | COc1cc(C(=O)Nc2ccccc2-c2nc3ncccc3o2)ccc1CN1CCCC1 [Compound 629] | A (A (Fold activation >250%)) | 5 to 50
41 | COc1cc(C(=O)Nc2ccccc2-c2nc3ncccc3o2)ccc1CN(C)C [Compound 630] | A (A (Fold activation >250%)) | 5 to 50
42 | COc1cc(C(=O)Nc2ccccc2-c2nc3ncccc3o2)ccc1CN1CCOCC1 [Compound 631] | B (B (Fold Activation <250%)) | < 5
43 | COc1cc(C(=O)Nc2ccccc2-c2nc3ncccc3o2)ccc1CN1CCN(C)CC1 [Compound 632] | A (A (Fold activation >250%)) | 5 to 50
